Assay [1] deals with 3',5'-cyclic-AMP phosphodiesterase 4D (Homo sapiens, UniProt Q08499). The class given is functional.
The target of assay [2] is Melanocortin receptor 3 (Homo sapiens, UniProt P41968).
For assay [3], the target named is T1, Prostaglandin G/H synthase 1 (Rattus norvegicus, UniProt Q63921).
T1 sequence (Q63921 whole entry): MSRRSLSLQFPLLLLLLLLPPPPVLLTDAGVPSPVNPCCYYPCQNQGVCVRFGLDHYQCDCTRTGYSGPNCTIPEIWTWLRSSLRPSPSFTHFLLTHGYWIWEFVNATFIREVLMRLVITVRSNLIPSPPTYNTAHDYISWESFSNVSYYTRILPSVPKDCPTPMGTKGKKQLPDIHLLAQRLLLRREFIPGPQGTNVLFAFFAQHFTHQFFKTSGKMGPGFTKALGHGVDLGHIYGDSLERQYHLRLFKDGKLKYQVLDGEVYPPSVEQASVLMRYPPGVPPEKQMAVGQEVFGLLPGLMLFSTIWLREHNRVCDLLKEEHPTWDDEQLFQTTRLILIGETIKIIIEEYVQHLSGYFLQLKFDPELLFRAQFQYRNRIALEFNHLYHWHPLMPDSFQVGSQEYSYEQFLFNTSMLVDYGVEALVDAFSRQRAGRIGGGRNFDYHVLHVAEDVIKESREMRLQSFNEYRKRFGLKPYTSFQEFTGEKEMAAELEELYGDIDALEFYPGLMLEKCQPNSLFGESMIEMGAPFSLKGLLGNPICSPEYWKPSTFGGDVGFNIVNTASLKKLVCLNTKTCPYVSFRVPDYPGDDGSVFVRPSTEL
The class given is functional.

In assay [4] the target is T2, Gastrin/cholecystokinin type B receptor (Homo sapiens, UniProt P32239).
T2 sequence (P32239 whole entry): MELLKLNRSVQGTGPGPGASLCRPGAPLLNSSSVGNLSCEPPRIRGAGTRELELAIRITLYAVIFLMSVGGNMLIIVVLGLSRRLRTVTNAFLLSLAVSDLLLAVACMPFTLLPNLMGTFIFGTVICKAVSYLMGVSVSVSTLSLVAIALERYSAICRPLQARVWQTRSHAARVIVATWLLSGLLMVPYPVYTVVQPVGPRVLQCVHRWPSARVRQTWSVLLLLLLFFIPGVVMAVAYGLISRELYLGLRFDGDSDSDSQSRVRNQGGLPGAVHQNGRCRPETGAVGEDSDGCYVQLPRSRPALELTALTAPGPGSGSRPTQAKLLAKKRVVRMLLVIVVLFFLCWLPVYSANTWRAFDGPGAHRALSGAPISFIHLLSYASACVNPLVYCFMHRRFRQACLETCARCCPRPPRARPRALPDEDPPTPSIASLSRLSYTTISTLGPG

The target in assay [5] is T3, Adenosine receptor A1 (Homo sapiens, UniProt P30542).
T3 sequence (P30542 whole entry): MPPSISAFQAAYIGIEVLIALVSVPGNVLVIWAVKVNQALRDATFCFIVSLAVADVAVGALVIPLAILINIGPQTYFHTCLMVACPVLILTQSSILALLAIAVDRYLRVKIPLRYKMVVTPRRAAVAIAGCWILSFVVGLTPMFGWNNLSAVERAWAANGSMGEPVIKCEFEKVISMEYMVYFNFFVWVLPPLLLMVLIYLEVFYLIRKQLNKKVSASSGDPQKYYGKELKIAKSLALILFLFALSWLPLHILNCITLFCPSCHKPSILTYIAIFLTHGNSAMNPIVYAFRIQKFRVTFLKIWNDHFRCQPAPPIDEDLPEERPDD

Assay [6] deals with Vasopressin V1a receptor (Homo sapiens, UniProt P37288).
Assay [7] has as its target T4, Muscarinic acetylcholine receptor M2 (Homo sapiens, UniProt P08172).
T4 sequence (P08172 whole entry): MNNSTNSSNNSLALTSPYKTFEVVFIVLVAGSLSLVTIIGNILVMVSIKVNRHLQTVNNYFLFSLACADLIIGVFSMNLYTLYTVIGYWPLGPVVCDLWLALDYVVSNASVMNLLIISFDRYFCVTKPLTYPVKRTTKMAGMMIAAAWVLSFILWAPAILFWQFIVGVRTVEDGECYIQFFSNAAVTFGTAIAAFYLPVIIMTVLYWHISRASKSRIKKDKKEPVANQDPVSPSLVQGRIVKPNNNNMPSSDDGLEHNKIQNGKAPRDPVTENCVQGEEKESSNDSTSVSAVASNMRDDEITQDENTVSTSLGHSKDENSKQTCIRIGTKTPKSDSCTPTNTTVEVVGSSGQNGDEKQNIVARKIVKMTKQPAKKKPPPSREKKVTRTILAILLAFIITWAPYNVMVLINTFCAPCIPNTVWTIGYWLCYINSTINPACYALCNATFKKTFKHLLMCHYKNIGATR
The class given is functional, cell-based.

Assay [8] has as its target T5, Progesterone receptor (Homo sapiens, UniProt P06401).
T5 sequence (P06401 whole entry): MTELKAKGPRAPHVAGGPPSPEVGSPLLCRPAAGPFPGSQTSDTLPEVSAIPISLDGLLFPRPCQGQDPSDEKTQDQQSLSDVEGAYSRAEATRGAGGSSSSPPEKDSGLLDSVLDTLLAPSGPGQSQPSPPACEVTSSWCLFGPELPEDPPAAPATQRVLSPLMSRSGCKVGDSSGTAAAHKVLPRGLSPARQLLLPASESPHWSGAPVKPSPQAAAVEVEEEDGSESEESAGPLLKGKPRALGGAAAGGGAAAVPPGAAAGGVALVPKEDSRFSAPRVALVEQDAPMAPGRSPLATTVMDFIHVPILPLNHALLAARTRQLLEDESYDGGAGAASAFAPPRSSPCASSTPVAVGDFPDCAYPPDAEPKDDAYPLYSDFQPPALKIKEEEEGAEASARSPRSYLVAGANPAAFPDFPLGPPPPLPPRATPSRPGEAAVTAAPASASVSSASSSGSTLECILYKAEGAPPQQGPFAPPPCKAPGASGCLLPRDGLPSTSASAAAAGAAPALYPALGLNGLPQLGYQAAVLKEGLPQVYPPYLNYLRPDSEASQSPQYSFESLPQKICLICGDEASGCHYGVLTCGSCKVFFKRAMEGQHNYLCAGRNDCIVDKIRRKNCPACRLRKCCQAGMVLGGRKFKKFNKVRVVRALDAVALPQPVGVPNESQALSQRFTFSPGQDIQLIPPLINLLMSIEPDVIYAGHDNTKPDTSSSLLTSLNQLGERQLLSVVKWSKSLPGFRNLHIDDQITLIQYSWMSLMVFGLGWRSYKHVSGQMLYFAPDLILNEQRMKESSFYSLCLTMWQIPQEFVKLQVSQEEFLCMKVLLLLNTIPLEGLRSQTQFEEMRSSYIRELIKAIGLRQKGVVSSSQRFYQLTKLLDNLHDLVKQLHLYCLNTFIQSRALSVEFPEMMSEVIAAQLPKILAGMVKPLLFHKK
The class given is functional.

Bounds are passed on as bounds.
Note: assay procedure not described here.

3',5'-cyclic-AMP phosphodiesterase 4D, sequence (Q08499 whole entry): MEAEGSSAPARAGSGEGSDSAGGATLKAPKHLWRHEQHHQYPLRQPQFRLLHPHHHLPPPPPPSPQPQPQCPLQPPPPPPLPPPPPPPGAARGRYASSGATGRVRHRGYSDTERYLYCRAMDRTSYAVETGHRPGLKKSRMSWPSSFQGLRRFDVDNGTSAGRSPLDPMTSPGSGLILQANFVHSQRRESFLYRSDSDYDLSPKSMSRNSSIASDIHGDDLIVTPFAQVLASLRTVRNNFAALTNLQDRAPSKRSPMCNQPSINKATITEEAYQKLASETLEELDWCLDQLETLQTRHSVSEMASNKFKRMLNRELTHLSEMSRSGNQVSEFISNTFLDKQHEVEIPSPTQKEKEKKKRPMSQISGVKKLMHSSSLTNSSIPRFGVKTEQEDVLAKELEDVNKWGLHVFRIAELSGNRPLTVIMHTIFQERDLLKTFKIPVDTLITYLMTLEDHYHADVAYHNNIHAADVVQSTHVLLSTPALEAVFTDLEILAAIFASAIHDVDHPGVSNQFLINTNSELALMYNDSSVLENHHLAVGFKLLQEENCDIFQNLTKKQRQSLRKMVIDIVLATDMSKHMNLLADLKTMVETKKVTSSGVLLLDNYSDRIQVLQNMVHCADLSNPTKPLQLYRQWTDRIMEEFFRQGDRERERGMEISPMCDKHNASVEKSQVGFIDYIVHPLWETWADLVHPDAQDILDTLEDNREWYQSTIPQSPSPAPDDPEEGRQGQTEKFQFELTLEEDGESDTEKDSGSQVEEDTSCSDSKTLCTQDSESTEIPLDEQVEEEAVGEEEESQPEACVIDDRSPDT
Vasopressin V1a receptor, sequence (P37288 whole entry): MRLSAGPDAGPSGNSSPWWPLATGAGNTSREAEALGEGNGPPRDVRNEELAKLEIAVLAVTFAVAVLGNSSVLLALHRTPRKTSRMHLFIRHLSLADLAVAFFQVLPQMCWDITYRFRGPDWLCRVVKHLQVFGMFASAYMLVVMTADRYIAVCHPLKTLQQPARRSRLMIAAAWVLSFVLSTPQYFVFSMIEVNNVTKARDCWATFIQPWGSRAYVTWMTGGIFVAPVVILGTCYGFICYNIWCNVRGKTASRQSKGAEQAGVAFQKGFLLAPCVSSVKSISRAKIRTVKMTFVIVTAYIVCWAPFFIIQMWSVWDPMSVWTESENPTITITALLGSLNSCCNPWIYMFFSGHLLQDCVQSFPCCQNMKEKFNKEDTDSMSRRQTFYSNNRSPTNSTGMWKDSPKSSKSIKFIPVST
Melanocortin receptor 3, sequence (P41968 whole entry): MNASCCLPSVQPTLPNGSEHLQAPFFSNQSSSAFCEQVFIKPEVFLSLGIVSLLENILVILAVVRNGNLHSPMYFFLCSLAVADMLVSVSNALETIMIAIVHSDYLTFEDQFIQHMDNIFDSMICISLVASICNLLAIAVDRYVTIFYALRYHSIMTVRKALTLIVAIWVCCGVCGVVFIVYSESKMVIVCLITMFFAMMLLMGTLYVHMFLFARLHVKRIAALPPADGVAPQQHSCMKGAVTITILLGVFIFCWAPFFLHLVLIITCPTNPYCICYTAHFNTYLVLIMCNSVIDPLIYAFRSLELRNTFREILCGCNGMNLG

In the case of `CC1=C(/C=C/C(C)=C/C=C/C(C)=C/C(=O)Oc2c(C)c(C)c3c(c2C)CCC(C)(CCCC(C)CCCC(C)CCCC(C)C)O3)C(C)(C)CCC1` (configuration not stated) [TRETINOIN TOCOFERIL], the AC50 in assay [1], in assay [2], in assay [3], in assay [4], in assay [5] and in assay [6] was greater than 30 µM each time. The AC50 in assay [7] was greater than 30 µM; in assay [8], 19 µM.
Regarding `CN(C)CCOCC(=O)NC12CC3CC(CC(C3)C1)C2` [TROMANTADINE], the AC50 in assay [1], in assay [2], in assay [3], in assay [4], in assay [5] and in assay [6] was greater than 30 µM each time. For the same compound, the AC50 in assay [7] and in assay [8] was greater than 30 µM throughout.
As for `CCCCCCCC(=O)CC[C@@H]1[C@@H](C/C=C\CCCC(=O)O)[C@@H](O)C[C@H]1O` [UNOPROSTONE], the concentration at half-maximal activity (AC50) in assay [1], in assay [2], in assay [3], in assay [4], in assay [5] and in assay [6] was greater than 30 µM each time. Besides, the AC50 in assay [7] and in assay [8] was greater than 30 µM throughout.
In the case of `OCC(CO)N[C@H]1C[C@](O)(CO)[C@@H](O)[C@H](O)[C@H]1O` [VOGLIBOSE], the AC50 in assay [1], in assay [2], in assay [3], in assay [4], in assay [5] and in assay [6] was greater than 30 µM throughout. Moreover, the AC50 in assay [7] and in assay [8] was greater than 30 µM each time.

For orientation: AC50 means the midpoint of the concentration-response curve, whichever way the signal moves. High values mean activity only at high concentration, low ones activity at low concentration.

(Values after ChEMBL document CHEMBL5291721, “A preclinical secondary pharmacology resource illuminates target-adverse drug reaction associations of marketed drugs” (Nat Commun, 2023).)
